Laboratory results published in patent publication US20250129370A1, “METHOD FOR REDUCING HEPATIC TRIGLYCERIDES” (ADAERATA, LIMITED PARTNERSHIP, priority 2022, published 2025).

Columns and labels:
[1] = tested on: mutated form of PCSK7 3′-UTR; test: Luciferase reporter assay, miRNA target site-deleted PCSK7 3′-UTR, HEK293T cells; format: cell-based, human
Source text: The interactions between the miRNAs and their probable targets on PCSK7 were explored by cloning the potential target regions in psiCHECK-2™ (Promega, USA), a luciferase reporter vector. In psiCHECK-2™, hRluc, the Renilla luciferase gene, is located upstream of the target regions of interest cloned into the psiCHECK-2™ vector downstream of the Renilla gene. The region corresponding to the 3′-UTR of PCSK7 (926-nt sequences in length) that constituted the predicted miRNA response elements was PCR-amplified and cloned downstream of the Renilla luciferase gene in the psiCHECK-2™ vector (Promega, USA). For the confirmation of whether miRNA response elements (miRNA target sites) on the 3′-UTR of PCSK7 were active and had direct interactions with the miRNAs, different mutants (plasmids) were constructed via splicing by over-hang-extension (SOEing) PCR. For miR-125a-5p and miR-143-3p, each of which has two miRNA response elements on PCSK7 3′-UTR, three different mutant constructs were built. Two constructs were made by deleting a putative miRNA target site, and the third one was made by omitting both putative miRNA target sites in the 3′-UTR sequence of PCSK7. In the miR-409-3p mutant construct, a putative miRNA target site was deleted from the 3′-UTR sequence.
The HEK293T cells were co-transfected through the application of the wild-type psiCHECK-2, the wild-type PCSK7 3′-UTR, the mutant PCSK7 3′-UTR, and the miR-overexpressing vectors so that the direct interactions of the nominated miRNAs with PCSK7 3′-UTR could be investigated. In brief, 150 ng of the wild-type or mutated 3′-UTR constructs and 300 ng of the miRNA-expressing vectors were co-transfected in HEK293T-cultured 48-well plates using FuGENE™ (Invitrogen, USA). Additionally, the psiCHECK-2 and pEGFP-C1 mock vectors were transfected and utilized as controls for luciferase assay and transfection, respectively. Transfection efficiency was monitored by fluorescent microscopy (Nikon TE2000S, Japan) 36 hours following the procedure.
The PsiCHECK-2 reporter construct plasmid contained the Renilla luciferase gene upstream of PCSK7 3′-UTR and an independent firefly luciferase gene as an internal control for normalization. Forty-eight hours after HEK293T co-transfection, the luciferase reporter assay was carried out employing the Dual-Luciferase Reporter Assay System (Promega, USA) with a luminometer (Titertek-Berthold, Germany) in accordance with the manufacturer's protocol. Each sample was performed in triplicate, and the experiment was repeated at least three biological times. In short, a lysis buffer was added to each well after the removal of the media of the cell. Then, LARII Reagent was added, and after 20 minutes, the firefly luciferase activity was measured as a control. Afterward, Renilla activity was determined using Stop & Glo Reagent. The relative luciferase activity was calculated using the following formula: ΔFold Activity of Luciferase (Renilla/Firefly)=Average Renilla/Firefly from Samples A/B.
A luciferase reporter assay further confirmed that miR-125a-5p, miR-143-3p, and miR-409-3p directly targeted the 3′-UTR of the PCSK7 transcript since the negative regulatory effect was lost upon the deletion of the miRNA target sites (miR-125a-5p, miR-143-3p, and miR-409-3p) on the 3′-UTR of the PCSK7 reporter plasmid (FIGS. 28A-B). In this regard, three different mutated miR plasmids were constructed for both miR-125a-5p and miR-143-3p. Single-target sites of each miRNA were omitted individually in two separate plasmids, and the two putative binding sites of the miRNAs were deleted in the other plasmid.

[2] = target: T1, secretory short N-terminal fragment of apoB (s-apoB; aa 1-965), P04114
T1 chain: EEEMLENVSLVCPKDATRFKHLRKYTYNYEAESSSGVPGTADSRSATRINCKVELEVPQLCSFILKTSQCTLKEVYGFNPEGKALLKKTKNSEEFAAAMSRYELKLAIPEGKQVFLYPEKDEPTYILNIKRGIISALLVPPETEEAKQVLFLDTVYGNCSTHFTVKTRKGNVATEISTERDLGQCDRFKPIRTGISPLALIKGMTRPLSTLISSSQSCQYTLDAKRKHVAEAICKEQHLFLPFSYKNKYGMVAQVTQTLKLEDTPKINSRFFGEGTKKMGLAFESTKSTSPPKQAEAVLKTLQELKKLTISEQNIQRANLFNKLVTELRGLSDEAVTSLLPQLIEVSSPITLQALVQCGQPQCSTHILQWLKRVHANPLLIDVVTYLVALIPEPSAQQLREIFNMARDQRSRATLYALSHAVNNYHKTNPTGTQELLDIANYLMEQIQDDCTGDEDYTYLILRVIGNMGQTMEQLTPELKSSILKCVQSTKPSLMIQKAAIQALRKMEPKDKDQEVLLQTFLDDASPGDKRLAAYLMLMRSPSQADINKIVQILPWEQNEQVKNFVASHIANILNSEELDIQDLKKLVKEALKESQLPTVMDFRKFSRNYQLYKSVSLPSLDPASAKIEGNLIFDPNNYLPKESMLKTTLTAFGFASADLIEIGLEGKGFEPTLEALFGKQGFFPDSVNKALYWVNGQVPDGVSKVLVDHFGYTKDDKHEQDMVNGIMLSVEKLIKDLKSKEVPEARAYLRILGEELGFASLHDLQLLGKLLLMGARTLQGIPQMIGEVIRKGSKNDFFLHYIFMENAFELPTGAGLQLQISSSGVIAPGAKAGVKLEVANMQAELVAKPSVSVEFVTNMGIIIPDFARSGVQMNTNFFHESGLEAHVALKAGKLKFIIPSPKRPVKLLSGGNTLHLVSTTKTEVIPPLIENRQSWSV

Molecule: miR-143-3p: miRNA with two target sites in the PCSK7 3′-UTR, overexpressed from precursor vector (UGAGAUGAAGCACUGUAGCUC; miRNA expressed from a precursor vector, further chemistry not given here)
- relative luciferase activity ([1]; Mut-a, deletion of the first target site): considerably diminished
- relative luciferase activity ([1]; Mut-a,b, deletion of both miRNA target sites): no significant effect
- relative luciferase activity ([1]; Mut-b, deletion of the second target site): considerably diminished

Molecule: miR-409-3p: miRNA with one target site in the PCSK7 3′-UTR, overexpressed from precursor vector (GAAUGUUGCUCGGUGAACCCCU; miRNA expressed from a precursor vector, further chemistry not given here)
- luciferase activity ([1]; only putative target site of miR-409-3p absent): did not lead to a reduction

B1: rat PC7 (protein)
chain: SIHFNDPKYPQQWHLNNRRSPGRDINVTGVWERNVTGRGVTVVVVDDGVEHTVQDIAPNYSPEGSYDLNSNDPDPMPHPDEENGNHHGTRCAGEIAAVPNNSFCAVGVAYGSRIAGIRVLDGPLTDSMEAVAFNKHYQINDIYSCSWGPDDDGKTVDGPHQLGKAALQHGVMAGRQGFGSIFVVASGNGGQHNDNCNYDGYANSIYTVTIGAVDEEGRMPFYAEECASMLAVTFSGGDKMLRSIVTTDWDLQKGTGCTEGHTGTSAAAPLAAGMIALMLQVRPCLTWRDVQHIIVFTATQYEDHRADWLTNEAGFSHSHQHGFGLLNAWRLVNAAKIWTSVPYLASYVSPMLKENKAVPRSPHSLEVLWNVSRTDLEMSGLKTLEHVAVTVSITHPRRGSLELKLFCPSGMMSLIGAPRSMDSDPNGFNDWTFSTVRCWGERARGVYRLVIRDVGDEPLQVGILQQWQLTLYGSTWSPVDIKDRQSLLESAMSGKYLHDDFTLPCPPGLKIPEEDGYSITPNTLKTLVLVGCFSVFWTIYYMLEVCLSQRSKASTHGCRRGCCPWPPQSQNSKEVGTALESMPLCSSKDLDGVDSEHGDCTTASSLLAPELLGEADWSLSQNSKSDLDCPPHQPPDLKDGQIC
- secretion of s-apoB (apo21), Western blot [2]: rat PC7 (rPC7) also enhanced by ~2-fold the secretion of s-apoB (apo21)

B2: rat PC7 soluble-KDEL variant (retained in the ER) (protein)
chain: SIHFNDPKYPQQWHLNNRRSPGRDINVTGVWERNVTGRGVTVVVVDDGVEHTVQDIAPNYSPEGSYDLNSNDPDPMPHPDEENGNHHGTRCAGEIAAVPNNSFCAVGVAYGSRIAGIRVLDGPLTDSMEAVAFNKHYQINDIYSCSWGPDDDGKTVDGPHQLGKAALQHGVMAGRQGFGSIFVVASGNGGQHNDNCNYDGYANSIYTVTIGAVDEEGRMPFYAEECASMLAVTFSGGDKMLRSIVTTDWDLQKGTGCTEGHTGTSAAAPLAAGMIALMLQVRPCLTWRDVQHIIVFTATQYEDHRADWLTNEAGFSHSHQHGFGLLNAWRLVNAAKIWTSVPYLASYVSPMLKENKAVPRSPHSLEVLWNVSRTDLEMSGLKTLEHVAVTVSITHPRRGSLELKLFCPSGMMSLIGAPRSMDSDPNGFNDWTFSTVRCWGERARGVYRLVIRDVGDEPLQVGILQQWQLTLYGSTWSPVDIKDRQSLLESAMSGKYLHDDFTLPCPPGLKIPEEDGYSITPNTLKTKDEL
- secretion of s-apoB (apo21) compared to rPC7, Western blot [2]: rPC7-KDEL significantly reduced (~30%) s-apoB (apo21) secretion compared to rPC7

B3: human PC7 (overexpressed in IHH cells) (protein)
chain: SVHFNDPKYPQQWHLNNRRSPGRDINVTGVWERNVTGRGVTVVVVDDGVEHTIQDIAPNYSPEGSYDLNSNDPDPMPHPDVENGNHHGTRCAGEIAAVPNNSFCAVGVAYGSRIAGIRVLDGPLTDSMEAVAFNKHYQINDIYSCSWGPDDDGKTVDGPHQLGKAALQHGVIAGRQGFGSIFVVASGNGGQHNDNCNYDGYANSIYTVTIGAVDEEGRMPFYAEECASMLAVTFSGGDKMLRSIVTTDWDLQKGTGCTEGHTGTSAAAPLAAGMIALMLQVRPCLTWRDVQHIIVFTATRYEDRRAEWVTNEAGFSHSHQHGFGLLNAWRLVNAAKIWTSVPYLASYVSPVLKENKAIPQSPRSLEVLWNVSRMDLEMSGLKTLEHVAVTVSITHPRRGSLELKLFCPSGMMSLIGAPRSMDSDPNGFNDWTFSTVRCWGERARGTYRLVIRDVGDESFQVGILRQWQLTLYGSVWSAVDIRDRQRLLESAMSGKYLHDDFALPCPPGLKIPEEDGYTITPNTLKTLVLVGCFTVFWTVYYMLEVYLSQRNVASNQVCRSGPCHWPHRSRKAKEEGTELESVPLCSSKDPDEVETESRGPPTTSDLLAPDLLEQGDWSLSQNKSALDCPHQHLDVPHGKEEQIC
- secretion of s-apoB (apoB21) into the medium, Western blot [2]: overexpression of PC7 enhanced the secretion of s-apoB (apoB21)
